Where two headings read alike, the source gives them in different places.
Assays:
[1] = system: HIV infected lymphocyte derived CEM cells; test: Cellular infection assay in CEM cells, XTT cytopathic procedure (EC50); settings: for TI (therapeutic index, TC50/EC50): CEM cells; for EC50: Human immunodeficiency virus 1, CCRF-CEM, read-out: Antiviral Efficacy EC50
Protocol: (§1) Compound concentrations were 0.32, 1, 3.2, 10, 32, and 100 uM.

[2] = target: T1, Recombinant HIV-1 protease (Human immunodeficiency virus type 1 group M subtype B, UniProt P04585); test: HIV protease assay (Ki determination, HPLC readout of substrate III cleavage); type: biochemical
T1 construct: Recombinant HIV-1 protease (>96% purity); purchased Bachem Bioscience, Inc. (King of Prussia, Pa.)
Protocol: Recombinant HIV-1 protease (>96% purity) and HIV protease substrate III (the undecapeptide H-His-Lys-Ala-Arg-Val-Leu-Nph-Glu-Ala-Nle-Ser-NH2, 97% purity) were purchased from Bachem Bioscience, Inc. (King of Prussia, Pa.).
The methods employed follow the procedures of Tummino, et al., Archives of Biochemistry and Biophysics, 1995;316:523). […] (total volume, […]). […] The final inhibitor concentrations used were 0 (0.1, 0.2, in some experiments), 0.5, 1, 2, 5, 10, 20, 50, and 100 μM. The solution was mixed, incubated for 5 minutes and the reaction quenched by addition of trifluoracetic acid, 2% final. The (leu-p-nitro-phe) bond of the substrate is cleaved by the enzyme and substrate arid products separated by reverse-phase HPLC. Absorbance was measured at 220 nm, peak areas determined, and percentage conversion to product used to calculate percentage control (=[% conversion (+inhibitor)/% conversion (−inhibitor)]×100).

[3] = Cellular toxicity in uninfected CEM cells, XTT (TC50); settings: human, uninfected CEM cells (lymphocyte derived)
Protocol: as §1

[4] = recombinant HIV-1 protease, read-out: Inhib of HIV Protease KI

| Compound | TI (therapeutic index, TC50/EC50) [1] | EC50 [1] [nM] | Ki [2] [nM] | CC50 [3] [nM] | Ki [2, 4] [nM] |
| --- | --- | --- | --- | --- | --- |
| Cc1cnc(CCC2(C(C)C)CC(O)=C(Sc3cc(C)c(CO)cc3C(C)(C)C)C(=O)O2)s1 (racemic) [Example 28, 3-(2-tert-Butyl-4-hydroxymethyl-5-methyl-phenylsulfanyl)-4-hydroxy-6-isopropyl-6-[2-(5-methyl-thiazol-2-yl)-ethyl]-5,6-dihydro-pyran-2-one] | 120 | 1900 | 0.24 | 229000 |  |
| Cc1cc(SC2=C(O)CC(CCc3csc(C(C)C)n3)(C(C)C)OC2=O)c(C(C)(C)C)cc1CO (racemic) [Example 32, 3-(2-tert-Butyl-4-hydroxymethyl-5-methyl-phenylsulfanyl)-4-hydroxy-6-isopropyl-6-[2-(2-isopropyl-thiazol-4-yl)-ethyl]-5,6-dihydro-pyran-2-one] | 4 | 23000 | 1.6 | 91000 |  |
| Cc1cc(SC2=C(O)CC(CCc3scnc3C(C)C)(C(C)C)OC2=O)c(C(C)(C)C)cc1CO (racemic) [Example 33, 3-(2-tert-Butyl-4-hydroxymethyl-5-methyl-phenylsulfanyl)-4-hydroxy-6-isopropyl-6-[2-(4-isopropyl-thiazol-5-yl)-ethyl]-5,6-dihydro-pyran-2-one] | 72 | 1400 |  | 101000 |  |
| Cc1cc(SC2=C(O)CC(CCc3ccsc3)(C(C)C)OC2=O)c(C(C)(C)C)cc1N (racemic) [Example 35, 3-(4-Amino-2-tert-butyl-5-methyl-phenylsulfanyl)-4-hydroxy-6-isopropyl-6-(2-thiophen-3-yl-ethyl)-5,6-dihydro-pyran-2-one] | 48 | 1500 | 0.88 | 72000 |  |
| Cc1cc(SC2=C(O)CC(CCc3ccc(CO)s3)(C(C)C)OC2=O)c(C(C)(C)C)cc1O (racemic) [Example 37, 3-(2-tert-Butyl-4-hydroxy-5-methyl-phenylsulfanyl)-4-hydroxy-6-[2-(5-hydroxymethyl-thiophen-2-yl)-ethyl]-6-isopropyl-5,6-dihydro-pyran-2-one] | 24 | 4200 | 0.37 | 100000 |  |
| Cc1cc(SC2=C(O)CC(CCc3ccc(CO)s3)(C(C)C)OC2=O)c(C(C)(C)C)cc1N (racemic) [Example 38, 3-(4-Amino-2-tert-butyl-5-methyl-phenylsulfanyl)-4-hydroxy-6-[2-(5-hydroxymethyl-thiophen-2-yl)-ethyl]-6-isopropyl-5,6-dihydro-pyran-2-one] | 113 | 1100 | 0.33 | 124000 |  |
| Cc1cc(SC2=C(O)CC(CCc3cc[nH]n3)(C(C)C)OC2=O)c(C(C)(C)C)cc1CO (racemic) [Example 40, 3-(2-tert-Butyl-4-hydroxymethyl-5-methyl-phenylsulfanyl)-4-hydroxy-6-isopropyl-6-[2-(1H-pyrazol-3-yl)-ethyl]-5,6-dihydro-pyran-2-one] | >57 | 5600 | 0.28 | > 320000 |  |
| Cc1cc(SC2=C(O)CC(CCc3cncnc3)(C(C)C)OC2=O)c(C(C)(C)C)cc1CO (racemic) [Example 42, 3-(2-tert-Butyl-4-hydroxymethyl-5-methyl-phenylsulfanyl)-4-hydroxy-6-isopropyl-6-(2-pyrimidin-5-yl-ethyl)-5,6-dihydro-pyran-2-one] | >159 | 1300 |  | > 200000 |  |
| Cc1ccc(C(C)(C)C)c(SC2=C(O)CC(CCc3ccc(CO)s3)(C(C)C)OC2=O)c1 (racemic) [Example 55, 3-(2-tert-Butyl-5-methyl-phenylsulfanyl)-4-hydroxy-6-[2-(5-hydroxymethyl-thiophen-2-yl)-ethyl]-6-isopropyl-5,6-dihydro-pyran-2-one] | 8 | 8300 | 1.7 | 66000 |  |
| Cc1cc(SC2=C(O)CC(CCC3CCCO3)(C(C)C)OC2=O)c(C(C)(C)C)cc1N (racemic) [Example 56, 3-(4-Amino-2-tert-butyl-5-methyl-phenylsulfanyl)-4-hydroxy-6-isopropyl-6-[2-(tetrahydro-furan-2-yl)-ethyl]-5,6-dihydro-pyran-2-one] | 21 | 10000 | 11 | 210000 |  |
| Cc1cc(SC2=C(O)CC(CCc3ccsc3)(C(C)C)OC2=O)c(C(C)(C)C)cc1NS(=O)(=O)c1ccc(C(F)(F)F)cn1 (racemic) [Example 59, 5-Trifluoromethyl-pyridine-2-sulfonic acid {5-tert-butyl-4-[4-hydroxy-6-isopropyl-2-oxo-6-(2-thiophen-3-yl-ethyl)-5,6-dihydro-2H-pyran-3-ylsulfanyl]-2-methyl-phenyl}-amide] | 110 | 600 | 0.08 | 66000 |  |
| Cc1cc(SC2=C(O)CC(CCc3ccc4[nH]ccc4c3)(C(C)C)OC2=O)c(C(C)(C)C)cc1CO (racemic) [Example 61, 3-(2-tert-Butyl-4-hydroxymethyl-5-methyl-phenylsulfanyl)-4-hydroxy-6-[2-(1H-indol-5-yl)-ethyl]-6-isopropyl-5,6-dihydro-pyran-2-one] | 68 | 680 | 0.98 | 46000 |  |
| Cc1cc(SC2=C(O)CC(CCc3sccc3C)(C(C)C)OC2=O)c(C(C)(C)C)cc1N (racemic) [Example 65, 3-(4-Amino-2-tert-butyl-5-methyl-phenylsulfanyl)-4-hydroxy-6-isopropyl-6-[2-(3-methyl-thiophen-2-yl)-ethyl]-5,6-dihydro-pyran-2-one] | 54 | 1100 | 1.2 | 60000 |  |
| CC(C)C1(CCc2ccsc2)CC(O)=C(Sc2cc3sc(N)nc3cc2C(C)(C)C)C(=O)O1 (racemic) [Example 82] | 109 | 700 | 1.1 | 76000 |  |
| Cc1c(F)cccc1CCC1(C(C)C)CC(O)=C(Sc2cc3sc(N)nc3cc2C(C)(C)C)C(=O)O1 (racemic) [Example 84, 3-(2-Amino-5-tert-butyl-benzothiazol-6-ylsulfanyl)-6-[2-(3-fluoro-2-methyl-phenyl)-ethyl]-4-hydroxy-6-isopropyl-5,6-dihydro-pyran-2-one] | 198 | 470 | 0.8 | 93000 |  |
| Cc1cc(SC2=C(O)CC(CCc3csc(N)n3)(C(C)C)OC2=O)c(C(C)(C)C)cc1CO (racemic) [Example 89, 6-[2-(2-Amino-thiazol-4-yl)-ethyl]-3-(2-tert-butyl-4-hydroxymethyl-5-methyl-phenylsulfanyl)-4-hydroxy-6-isopropyl-5,6-dihydro-pyran-2-one] | >57 | 3500 | 0.95 | > 200000 |  |
| Cc1cc(SC2=C(O)CC(CCc3ccncc3)(C(C)C)OC2=O)c(C(C)(C)C)cc1CO (stereo not shown) [Example 1, 3-(2-tert-Butyl-4-hydroxymethyl-5-methyl-phenylsulfanyl)-4-hydroxy-6-isopropyl-6-(2-pyridin-4-yl-ethyl)-5,6-dihydro-pyran-2-one] | 197 | 1500 |  | 296000 | 1.5 |
| Cc1cc(SC2=C(O)CC(CCc3cccnc3)(C(C)C)OC2=O)c(C(C)(C)C)cc1CO (stereo not shown) [Example 2, 3-(2-tert-Butyl-4-hydroxymethyl-5-methyl-phenylsulfanyl)4-hydroxy-6-isopropyl-6-(2-pyridin-3-yl-ethyl)-5,6-dihydro-pyran-2-one] |  |  |  |  | 0.9 |
| Cc1cc(SC2=C(O)C[C@@](CCc3ccccc3)(C(C)C)OC2=O)c(C(C)C)c2sc(N)nc12 [Example 17, (S)-3-(2-Amino-7-isopropyl-4-methyl-benzothiazol-6-yl-sulfanyl)-4-hydroxy-6-isopropyl-6-phenethyl-5,6-dihydro-pyran-2-one] | 16 | 2700 |  | 42000 |  |
| Cc1cc(SC2=C(O)C[C@@](CCc3ccc(O)cc3)(C(C)C)OC2=O)c(C(C)C)c2sc(N)nc12 [Example 18, (S)-3-(2-Amino-7-isopropyl-4-methyl-benzothiazol-6-ylsulfanyl)-4-hydroxy-6-[2-(4-hydroxyl-phenyl)-ethyl]-6-isopropyl-5,6-dihydro-pyran-2-one] | 105 | 1100 |  | 117000 |  |
| Cc1cc(SC2=C(O)CC(CCc3scnc3C)(C(C)C)OC2=O)c(C(C)(C)C)cc1CO (stereo not shown) [Example 24, 3-(2-tert-Butyl-4-hydroxymethyl-5-methyl-phenylsulfanyl)-4-hydroxy-6-isopropyl-6-[2-(4-methyl-thiazol-5-yl)-ethyl]-5,6-dihydro-pyran-2-one] | 443 | 370 |  | 164000 |  |
